Data as given in patent US20160120863A1, “SLC2A TRANSPORTER INHIBITORS” (IOMET PHARMA LTD., priority 2013, published 2016).

Experiments:
human GLUT2 = molecular target: T1, human GLUT2 (Homo sapiens, UniProt P11168); assay: [3H]-deoxy-D-glucose uptake assay, GLUT2; type: cell-based; settings: [3H]-deoxy-D-glucose uptake in HEK293 cells stably expressing human GLUT2
T1 construct: expressed in transfected cells
T1 sequence (P11168 1-524): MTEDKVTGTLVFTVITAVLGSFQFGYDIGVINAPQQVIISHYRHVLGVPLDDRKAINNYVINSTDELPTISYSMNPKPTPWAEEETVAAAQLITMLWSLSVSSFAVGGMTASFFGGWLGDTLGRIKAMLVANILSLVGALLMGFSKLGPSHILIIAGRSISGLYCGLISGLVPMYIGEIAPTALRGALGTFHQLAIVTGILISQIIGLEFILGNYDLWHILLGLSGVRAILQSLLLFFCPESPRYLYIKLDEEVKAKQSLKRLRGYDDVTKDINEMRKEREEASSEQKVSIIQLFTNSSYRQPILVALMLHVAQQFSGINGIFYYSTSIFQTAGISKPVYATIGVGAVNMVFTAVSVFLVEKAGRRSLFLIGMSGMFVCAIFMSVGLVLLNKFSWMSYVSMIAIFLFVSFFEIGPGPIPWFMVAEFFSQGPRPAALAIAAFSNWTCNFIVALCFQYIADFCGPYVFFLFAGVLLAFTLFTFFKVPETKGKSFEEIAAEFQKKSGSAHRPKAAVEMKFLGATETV
Description: HEK293 cells were engineered to stably express either human GLUT1, GLUT2, GLUt3 or GLUT4 by transfection with the pReceiver-Lv105 plasmid, containing either hGLUT1, hGLUT2, hGLUT3, or hGLUT4 gene constructs with lipofectamine 2000, hGLUT1- hGLUT2- hGLUT3- or hGLUT4-overexpressing polyclonal populations were isolated under purinomycin selective pressure (1 μg/ml) and maintained in Dulbecco's modified Eagle's medium supplemented with 1 μg/ml purinomycin+10% foetal bovine serum (FBS).
60,000 cells per well were seeded overnight into poly-D-lysine coasted 96-well plates. […] 90 μl of test compounds were added in glucose-free uptake buffer and cells were incubated at 37° C. for 30 min.
Cells were then washed twice with ice-cold PBS and 100 μl of Microscint-20 was added per well. Glucose uptake was quantified with a scintillation counter. The half maximal inhibitory concentration (IC50) (a measure of the effectiveness of the test compound in inhibiting glucose uptake) was determined.

human GLUT1 = molecular target: T2, human GLUT1 (Homo sapiens, UniProt P11166); assay: [3H]-deoxy-D-glucose uptake assay, GLUT1; type: cell-based; settings: [3H]-deoxy-D-glucose uptake in HEK293 cells stably expressing human GLUT1
T2 construct: expressed in transfected cells
T2 sequence (P11166 1-492): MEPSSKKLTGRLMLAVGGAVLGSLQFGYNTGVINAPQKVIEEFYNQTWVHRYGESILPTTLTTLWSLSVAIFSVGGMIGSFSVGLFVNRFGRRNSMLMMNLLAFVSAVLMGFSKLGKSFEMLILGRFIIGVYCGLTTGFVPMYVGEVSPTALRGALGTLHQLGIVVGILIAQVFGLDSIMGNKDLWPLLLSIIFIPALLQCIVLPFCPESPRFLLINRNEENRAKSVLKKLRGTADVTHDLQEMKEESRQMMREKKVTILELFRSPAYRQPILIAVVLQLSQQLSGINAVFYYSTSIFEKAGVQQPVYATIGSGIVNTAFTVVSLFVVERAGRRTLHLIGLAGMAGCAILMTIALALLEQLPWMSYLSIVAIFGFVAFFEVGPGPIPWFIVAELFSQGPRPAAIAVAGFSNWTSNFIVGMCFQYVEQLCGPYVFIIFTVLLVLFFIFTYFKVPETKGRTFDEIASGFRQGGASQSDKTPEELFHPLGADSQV
Outline: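 HEK293 cells stably overexpressing human GLUT1 or GLUT2, seeded at 60,000 per well, treated with compounds in glucose-free uptake buffer for 30 min at 37 °C. [3H]-deoxy-D-glucose uptake quantified by scintillation counting after ice-cold PBS washes; IC50 determined.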

## N#Cc1ccccc1-c1ccc2nc(-c3ccc(Cl)cc3)c(CN3CCOCC3)n2c1 [Compound 91]
Human GLUT2
  GLUT2 pIC50: +++ (pIC50 ≧ 6.00)
Human GLUT1
  GLUT1 pIC50: +++ (pIC50 ≧ 6.00)

## COc1ccc(C(=O)N2CCN(Cc3c(-c4ccc(Cl)cc4)nc4ccc(-c5ccccc5)cn34)CC2)cc1 [Compound 126]
Human GLUT2
  GLUT2 pIC50: +++ (pIC50 ≧ 6.00)
Human GLUT1
  GLUT1 pIC50: +++ (pIC50 ≧ 6.00)

## O=C(Nc1cccc(F)c1)N1CCN(Cc2c(-c3ccc(Cl)cc3)nc3ccc(-c4ccccc4)cn23)CC1 [Compound 127]
Human GLUT2
  GLUT2 pIC50: +− (pIC50 < 4.00)
Human GLUT1
  GLUT1 pIC50: +− (pIC50 < 4.00)

## O=C(C1COC1)N1CCN(Cc2c(-c3ccc(Cl)cc3)nc3ccc(-c4ccccc4)cn23)CC1 [Compound 171]
Human GLUT2
  GLUT2 pIC50: +++ (pIC50 ≧ 6.00)
Human GLUT1
  GLUT1 pIC50: +++ (pIC50 ≧ 6.00)

## CC(C)c1cn2c(CN3CCOCC3)c(-c3ccc(Cl)cc3)nc2cn1 [Compound 217]
Human GLUT2
  GLUT2 pIC50: +++ (pIC50 ≧ 6.00)
Human GLUT1
  GLUT1 pIC50: +++ (pIC50 ≧ 6.00)

## CC(=O)N1CCN(Cc2c(-c3ccc(Cl)cc3)nc3cnc(-c4ccccc4C#N)cn23)CC1 [Compound 224]
Human GLUT2
  GLUT2 pIC50: +++ (pIC50 ≧ 6.00)
Human GLUT1
  GLUT1 pIC50: +++ (pIC50 ≧ 6.00)

## O=C1CCN(Cc2c(-c3ccc(Cl)cc3)nc3ccc(-c4ccccc4)cn23)CCN1 [Compound 227]
Human GLUT2
  GLUT2 pIC50: +++ (pIC50 ≧ 6.00)
Human GLUT1
  GLUT1 pIC50: +++ (pIC50 ≧ 6.00)

## CN1CCN(Cc2c(-c3ccc(Cl)cc3)nc3ccc(-c4ccccc4)cn23)CCC1=O [Compound 232]
Human GLUT2
  GLUT2 pIC50: +++ (pIC50 ≧ 6.00)
Human GLUT1
  GLUT1 pIC50: +++ (pIC50 ≧ 6.00)

## N#Cc1cccc(F)c1-c1ccc2nc(-c3ccc(Cl)cc3)c(CN3CCOCC3)n2c1 [Compound 236]
Human GLUT2
  GLUT2 pIC50: +++ (pIC50 ≧ 6.00)
Human GLUT1
  GLUT1 pIC50: +++ (pIC50 ≧ 6.00)

## CN1CCN(Cc2c(-c3ccc(Cl)cc3)nc3ccc(-c4ccccc4C#N)cn23)CC1=O [Compound 247]
Human GLUT2
  GLUT2 pIC50: +++ (pIC50 ≧ 6.00)
Human GLUT1
  GLUT1 pIC50: +++ (pIC50 ≧ 6.00)

## CCC(=O)N1CCN(Cc2c(-c3ccc(Cl)cc3)nc3cnc(C4CC4)cn23)CC1 [Compound 253]
Human GLUT2
  GLUT2 pIC50: +++ (pIC50 ≧ 6.00)
Human GLUT1
  GLUT1 pIC50: +++ (pIC50 ≧ 6.00)

## CC(=O)N1CCN(Cc2c(-c3ccc(Cl)cc3)nc3ccc(NS(C)(=O)=O)cn23)CC1 [Compound 259]
Human GLUT2
  GLUT2 pIC50: ++ (pIC50 5.00-5.99)
Human GLUT1
  GLUT1 pIC50: +++ (pIC50 ≧ 6.00)

## Clc1ccc(-c2nc3cnc(C4CC4)cn3c2CN2CCn3ncnc3C2)cc1 [Compound 261]
Human GLUT2
  GLUT2 pIC50: +++ (pIC50 ≧ 6.00)
Human GLUT1
  GLUT1 pIC50: +++ (pIC50 ≧ 6.00)

## N#Cc1ccccc1-c1cn2c(CN3CCOCC3)c(-c3ccc(Cl)cc3)nc2cn1 [Compound 269]
Human GLUT2
  GLUT2 pIC50: ++ (pIC50 5.00-5.99)
Human GLUT1
  GLUT1 pIC50: +++ (pIC50 ≧ 6.00)

## O=C1CN(Cc2c(-c3ccc(Cl)cc3Cl)nc3cnc(C4CC4)cn23)CCN1 [Compound 272]
Human GLUT2
  GLUT2 pIC50: +++ (pIC50 ≧ 6.00)
Human GLUT1
  GLUT1 pIC50: +++ (pIC50 ≧ 6.00)

## O=C1CN(Cc2c(-c3ccc(Cl)cc3)nc3ccc(-c4ncon4)cn23)CCN1 [Compound 278]
Human GLUT2
  GLUT2 pIC50: ++ (pIC50 5.00-5.99)
Human GLUT1
  GLUT1 pIC50: ++ (pIC50 5.00-5.99)

## CC(=O)N1CCN(Cc2c(-c3ccc(Cl)cc3)nc3ccc(N(C)S(C)(=O)=O)cn23)CC1 [Compound 292]
Human GLUT2
  GLUT2 pIC50: ++ (pIC50 5.00-5.99)
Human GLUT1
  GLUT1 pIC50: +++ (pIC50 ≧ 6.00)

## O=C1CN(Cc2c(-c3ccc(Cl)cc3)nc3ccc(-c4ccccn4)cn23)CCN1 [Compound 294]
Human GLUT2
  GLUT2 pIC50: +++ (pIC50 ≧ 6.00)
Human GLUT1
  GLUT1 pIC50: +++ (pIC50 ≧ 6.00)

## CC(=O)N1CCN(Cc2c(-c3ccc(Cl)cc3)nc3ccc(-c4ccccn4)cn23)CC1 [Compound 295]
Human GLUT2
  GLUT2 pIC50: +++ (pIC50 ≧ 6.00)
Human GLUT1
  GLUT1 pIC50: +++ (pIC50 ≧ 6.00)

## Clc1ccc(-c2nc3ccc(C4COC4)cn3c2CN2CCOCC2)cc1 [Compound 298]
Human GLUT2
  GLUT2 pIC50: +− (pIC50 < 4.00)
Human GLUT1
  GLUT1 pIC50: ++ (pIC50 5.00-5.99)

## Clc1ccc(-c2nc3ccc(-c4ccccn4)cn3c2CN2CCn3ncnc3C2)c(Cl)c1 [Compound 299]
Human GLUT2
  GLUT2 pIC50: +++ (pIC50 ≧ 6.00)
Human GLUT1
  GLUT1 pIC50: +++ (pIC50 ≧ 6.00)

## O=C(Cc1c(-c2ccc(Cl)cc2)nc2ccc(-c3ccccc3)cn12)N1CCOCC1 [Compound 301]
Human GLUT2
  GLUT2 pIC50: ++ (pIC50 5.00-5.99)
Human GLUT1
  GLUT1 pIC50: +− (pIC50 < 4.00)

## CCOC(=O)Cc1c(-c2ccc(Cl)cc2)nc2ccc(-c3ccccc3)cn12 [Compound 302]
Human GLUT2
  GLUT2 pIC50: ++ (pIC50 5.00-5.99)
Human GLUT1
  GLUT1 pIC50: +− (pIC50 < 4.00)

## CN(c1ccc2nc(-c3ccc(Cl)cc3)c(CN3CCNCC3)n2c1)S(C)(=O)=O [Compound 304]
Human GLUT2
  GLUT2 pIC50: +− (pIC50 < 4.00)
Human GLUT1
  GLUT1 pIC50: ++ (pIC50 5.00-5.99)

## c1ccc(-c2ccc3nc(C4CCOCC4)c(CN4CCOCC4)n3c2)cc1 [Compound 305]
Human GLUT2
  GLUT2 pIC50: +− (pIC50 < 4.00)
Human GLUT1
  GLUT1 pIC50: +− (pIC50 < 4.00)

## COCC(=O)N1CCN(Cc2c(-c3ccc(Cl)cc3Cl)nc3ccc(-c4ncon4)cn23)CC1 [Compound 307]
Human GLUT2
  GLUT2 pIC50: ++ (pIC50 5.00-5.99)
Human GLUT1
  GLUT1 pIC50: +++ (pIC50 ≧ 6.00)

## CC(C)(O)C(=O)N1CCN(Cc2c(-c3ccc(Cl)cc3)nc3ccc(-c4ccccc4)cn23)CC1 [Compound 308]
Human GLUT2
  GLUT2 pIC50: +++ (pIC50 ≧ 6.00)
Human GLUT1
  GLUT1 pIC50: +++ (pIC50 ≧ 6.00)

## CC(=O)N1CCN(Cc2c(-c3ccc(Cl)cc3Cl)nc3ccc(-c4ncon4)cn23)CC1 [Compound 312]
Human GLUT2
  GLUT2 pIC50: +++ (pIC50 ≧ 6.00)
Human GLUT1
  GLUT1 pIC50: +++ (pIC50 ≧ 6.00)

## COCCS(=O)(=O)Nc1ccc2nc(-c3ccc(Cl)cc3)c(CN3CCN(C(C)=O)CC3)n2c1 [Compound 315]
Human GLUT2
  GLUT2 pIC50: +− (pIC50 < 4.00)
Human GLUT1
  GLUT1 pIC50: ++ (pIC50 5.00-5.99)

## CC(=O)N1CCN(Cc2c(-c3ccc(Cl)cc3)nc3ccc(NS(=O)(=O)C(C)C)cn23)CC1 [Compound 317]
Human GLUT2
  GLUT2 pIC50: ++ (pIC50 5.00-5.99)
Human GLUT1
  GLUT1 pIC50: ++ (pIC50 5.00-5.99)

## CC(=O)N1CCN(Cc2c(-c3ccc(Cl)cc3)nc3ccc(NS(=O)(=O)C4CC4)cn23)CC1 [Compound 318]
Human GLUT2
  GLUT2 pIC50: ++ (pIC50 5.00-5.99)
Human GLUT1
  GLUT1 pIC50: +++ (pIC50 ≧ 6.00)

## CCCS(=O)(=O)Nc1ccc2nc(-c3ccc(Cl)cc3)c(CN3CCN(C(C)=O)CC3)n2c1 [Compound 319]
Human GLUT2
  GLUT2 pIC50: ++ (pIC50 5.00-5.99)
Human GLUT1
  GLUT1 pIC50: +++ (pIC50 ≧ 6.00)

## CC(=O)N1CCN(Cc2c(-c3ccc(Cl)cc3)nc3ccc(N4CCCS4(=O)=O)cn23)CC1 [Compound 320]
Human GLUT2
  GLUT2 pIC50: +++ (pIC50 ≧ 6.00)
Human GLUT1
  GLUT1 pIC50: +++ (pIC50 ≧ 6.00)

## Clc1ccc(-c2nc3cnc(C4CC4)cn3c2CN2CCn3ncnc3C2)c(Cl)c1 [Compound 323]
Human GLUT2
  GLUT2 pIC50: +++ (pIC50 ≧ 6.00)
Human GLUT1
  GLUT1 pIC50: +++ (pIC50 ≧ 6.00)

## CN(c1ccc2nc(-c3ccc(Cl)cc3)c(CN3CCn4ncnc4C3)n2c1)S(C)(=O)=O [Compound 324]
Human GLUT2
  GLUT2 pIC50: ++ (pIC50 5.00-5.99)
Human GLUT1
  GLUT1 pIC50: +++ (pIC50 ≧ 6.00)
